Laboratory results: the supplement of paper PMC3974653
Structures can show the parent of a compound that is named as a salt.

Tested on: MTT (mouse pheochromocytoma)
Assay: IC50 of cell viability (ATP content)
Details: (24 or 48 h)
Summary of the method: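 MTT mouse pheochromocytoma cells, cultured overnight at 37°C, 5% CO2 in DMEM with 5% FBS and 1% horse serum, were exposed in white 1536-well plates to library compounds in DMSO at final 0.5 nM to 46 µM (8 concentrations) for 24 or 48 hrs. CellTiter-Glo luminescence was normalised to positive-control (100%) and DMSO (0%) wells. A four-parameter logistic fit gave the IC50.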

Row | SMILES | IC50 of cell viability [µM]
1 | CC(C)CC(NC(=O)CNC(=O)C(Cc1ccc(O)cc1)NC(=O)C(CO)NC(=O)C(Cc1c[nH]c2ccccc12)NC(=O)C(Cc1c[nH]cn1)NC(=O)C1CCC(=O)N1)C(=O)NC(CCCNC(=N)N)C(=O)N1CCCC1C(=O)NCC(N)=O (configuration not stated) [GONADORELIN] | > 46
2 | CC(C)CC(NC(=O)C(COC(C)(C)C)NC(=O)C(Cc1ccc(O)cc1)NC(=O)C(CO)NC(=O)C(Cc1c[nH]c2ccccc12)NC(=O)C(Cc1cnc[nH]1)NC(=O)C1CCC(=O)N1)C(=O)NC(CCCN=C(N)N)C(=O)N1CCCC1C(=O)NNC(N)=O (configuration not stated) [GOSERELIN ACETATE] | > 46
3 | N=C(N)NC(=O)Cc1c(Cl)cccc1Cl [GUANFACINE] | > 46
4 | NCC1(CC(=O)O)CCCCC1 [Gabapentin] | > 46
5 | CCOC(=O)c1ccc(OC(=O)CCCCCNC(=N)N)cc1.C[S+](=O)([O-])O [Gabexate mesilate] | > 46
6 | OCC1OC(O)C(O)C(O)C1O (configuration not stated) [Galactose] | > 46
7 | O=C(O)c1cc(O)c(O)c(O)c1 [Gallic acid] | > 46
8 | CN[C@@H](C)[C@H]1CC[C@@H](N)[C@H](O[C@@H]2[C@@H](O)[C@H](O[C@@H]3OC[C@@](C)(O)[C@@H](NC)[C@H]3O)[C@H](N)C[C@@H]2N)O1.CN[C@H]1[C@@H](O)[C@H](O[C@H]2[C@H](O)[C@@H](O[C@@H]3O[C@@H](CN)CC[C@H]3N)[C@@H](N)C[C@H]2N)OC[C@@]1(C)O.CN[C@H]1[C@@H](O)[C@H](O[C@H]2[C@H](O)[C@@H](O[C@@H]3O[C@@H]([C@H](C)N)CC[C@H]3N)[C@@H](N)C[C@H]2N)OC[C@@]1(C)O.O=[S+]([O-])(O)O [Gentamicine sulfate] | > 46
9 | CC(C)=CCC/C(C)=C/CC/C(C)=C/CCC(=O)OC/C=C(\C)CCC=C(C)C [Geranyl farnesylacetate] | > 46
10 | Cc1cc(C(=O)NCCc2ccc([S+](=O)([O-])NC(=O)NN3CCCCCC3)cc2)no1 [Glisoxepide] | > 46
11 | CC[C@@]1(c2ccc(N)cc2)CCC(=O)NC1=O [Glutethimide, para-amino] | > 46
12 | CCC1(c2ccccc2)CCC(=O)NC1=O (configuration not stated) [Glutethimide] | > 46
13 | O=CC=O [Glyoxal] | > 46
14 | COc1cc2c(c(OC)c1OC)-c1c(cc3c(c1OC)OCO3)CC(C)C(C)(O)C2 (configuration not stated) [Gomisin A] | > 46
15 | COc1cc2c(c(OC)c1OC)-c1c(cc3c(c1OC)OCO3)C[C@@H](C)[C@](C)(O)C2 [Gomisin A] | > 46
16 | Cc1cc2c(C(C)C)c(O)c(O)c(C=O)c2c(O)c1-c1c(C)cc2c(C(C)C)c(O)c(O)c(C=O)c2c1O [Gossypol] | > 46
17 | CCN(CC)CCOc1ccccc1OC [Guaiactamine] | > 46
18 | N=C(N)NC[C@@H]1COC2(CCCCC2)O1 [Guanadrel sulfate] | > 46
19 | N=C(N)NCC1COc2ccccc2O1 (configuration not stated) [Guanoxano] | > 46
20 | N=C(N)NCCCCCCC(=O)NC(O)C(=O)NCCCCNCCCN (configuration not stated) [Gusperimus trihydrochloride] | > 46
21 | CCC(=O)O[C@]1(C(=O)CCl)[C@@H](C)CC2C3C[C@H](F)C4=CC(=O)C=CC4(C)[C@@]3(F)C(O)CC21C (some centres not stated) [HALOBETASOL PROPIONATE] | > 46
22 | O=C(CC1NCCC[C@H]1O)Cn1cnc2cc(Br)c(Cl)cc2c1=O (some centres not stated) [HALOFUGINONE LACTATE] | > 46
23 | O=C(CCCN1CCC(O)(c2ccc(Cl)cc2)CC1)c1ccc(F)cc1 [HALOPERIDOL] | > 46
24 | CC(C)CCCC(C)CCCC(C)CCCCC(C)CCCC(C)CCCC(C)C (configuration not stated) [HEXAMETHYLTETRACOSANE] | > 46
25 | CN1C(=O)NC(=O)C(C)(C2=CCCCC2)C1=O (configuration not stated) [HEXOBARBITAL] | > 46
26 | NCCc1c[nH]cn1 [HISTAMINE] | > 46
27 | CN(C)CCc1ccc(O)cc1 [HORDENINE] | > 46
28 | N[S+](=O)([O-])c1cc2c(cc1Cl)NCN[S+]2(=O)[O-] [HYDROCHLOROTHIAZIDE] | > 46
29 | COc1ccc2c3c1O[C@H]1C(=O)CC[C@H]4[C@@H](C2)N(C)CC[C@]314 [HYDROCODONE BITARTRATE] | > 46
30 | C[C@]12CCC(=O)C=C1CC[C@@H]1[C@@H]2[C@@H](O)C[C@@]2(C)[C@H]1CC[C@]2(O)C(=O)COP(=O)([O-])[O-] [HYDROCORTISONE SODIUM PHOSPHATE] | > 46

Results, then the molecule that gave them:

Row | IC50 of cell viability [µM] | SMILES
31 | > 46 | CC1(C(=O)O)CCC2(C)CCC3(C)C(=CC(=O)[C@@H]4C5(C)CC[C@H](O[C@H]6O[C@H](C(=O)O)C(O)C(O)[C@H]6O[C@@H]6O[C@H](C(=O)O)C(O)C(O)C6O)C(C)(C)[C@@H]5CCC43C)[C@@H]2C1 (some centres not stated) [GLYCYRRHIZIC ACID, MONOSODIUM SALT]
32 | > 46 | Cc1ccc(S(=O)(=O)NC(=O)NC2CCCCCCC2)cc1 [GLYOCTAMIDUM]
33 | > 46 | COc1ccc([S+](=O)([O-])Nc2nnc(CC(C)C)s2)cc1 [GLYSOBUZOLUM]
34 | > 46 | CC(C)C[C@@H](NC(=O)[C@@H](COC(C)(C)C)NC(=O)[C@H](Cc1ccc(O)cc1)NC(=O)[C@@H](CO)NC(=O)[C@@H](Cc1c[nH]c2ccccc12)NC(=O)[C@@H](Cc1c[nH]cn1)NC(=O)[C@@H]1CCC(=O)N1)C(=O)N[C@H](CCCNC(=N)N)C(=O)N1CCC[C@H]1C(=O)NNC(N)=O [GOSERELIN ACETATE]
35 | > 46 | Cc1c(F)c(N2CCNC(C)C2)cc2c1c(=O)c(C(=O)O)cn2C1CC1 (configuration not stated) [GREPAFLOXACIN HYDROCHLORIDE]
36 | > 46 | N=C(N)N/N=C/c1c(Cl)cccc1Cl [GUANABENZ]
37 | > 46 | N=C(N)N.O=C(O)O [GUANIDINE CARBONATE]
38 | > 46 | CCCCC/C=C\C/C=C\C/C=C\CCCCC(=O)O [Gamolenic acid]
39 | > 46 | N\C1=N\C2=C(N=C[N]2COC(CO)CO)C(=O)N1 [Ganciclovir]
40 | > 46 | C[C@H]1NCc2cc(-c3ccc4c(=O)c(C(=O)O)cn(C5CC5)c4c3OC(F)F)ccc21 [Garenoxacin]
41 | > 46 | COc1cc2ncnc(Nc3ccc(F)c(Cl)c3)c2cc1OCCCN1CCOCC1 [Gefitinib]
42 | > 46 | Cc1ccc(C)c(OCCCC(C)(C)C(=O)O)c1 [Gemfibrozil]
43 | > 46 | O=C(OC[C@@H](O)CO)c1ccccc1Nc1ccnc2cc(Cl)ccc12 [Glafenine hydrochloride]
44 | > 46 | Cc1ccc([S+](=O)([O-])NC(=O)NN2C[C@H]3CCC[C@@H]3C2)cc1 [Gliclazide]
45 | > 46 | CC\C1=C(/C)CN(C(=O)NCCC2=CC=C(C=C2)[S+]([O-])(=O)NC(=O)NC3CCC(C)CC3)C1=O (configuration not stated) [Glimepiride]
46 | > 46 | COc1ccc2c(c1)C(=O)N(CCc1ccc([S+](=O)([O-])NC(=O)NC3CCCCC3)cc1)C(=O)C2(C)C [Gliquidone]
47 | > 46 | COc1ccc([S+](=O)([O-])Nc2nnc(CC(C)C)s2)cc1 [Glisobuzol]
48 | > 46 | O=C1O[C@H]2[C@@H](OC(O)[C@@H]2O)[C@H]1O (some centres not stated) [Glucuronolactone]
49 | > 46 | O=CCCCC=O [Glutaraldehyde (Glutaric dialdehyde)]

Row | IC50 of cell viability [µM] | SMILES
50 | > 46 | O=P([O-])([O-])OC(CO)CO [Glycerol phosphate calcium salt]
51 | > 46 | NCC(=O)O [Glycine]
52 | > 46 | CCCCCCCCCCCCCCCCCC(=O)OCCO [Glycol stearate]
53 | > 46 | C[N+]1(C)CCC(OC(=O)C(O)(c2ccccc2)C2CCCC2)C1 (configuration not stated) [Glycopyrrolate bromide]
54 | > 46 | Cc1ccc([S+](=O)([O-])NC(=O)NC2CCCCC2)cc1 [Glycyclamide]
55 | > 46 | CN1[C@@H]2CCC[C@@H]1CC(NC(=O)c1nn(C)c3ccccc13)C2 (some centres not stated) [Granisetron Hydrochloride]
56 | > 46 | COC1=CC(=C2C(=O)[C@]\3(OC2=C1Cl)[C@H](C)CC(=O)\C=C3OC)OC [Griseofulvin]
57 | > 46 | COc1ccccc1OC[C@H](O)CO [Guaifenesin]
58 | > 46 | N=C(N)NCCN1CCCCCCC1 [Guanethidine sulfate]
59 | > 46 | O=C(O)c1ccc([S+](=O)([O-])N(Cl)Cl)cc1 [HALAZONE]
60 | > 46 | CC(N)CCCC(C)(C)O.Cl (configuration not stated) [HEPTAMINOL HYDROCHLORIDE]
61 | > 46 | CC1(C)SC2C(N3C(=O)C(c4ccccc4)NC3(C)C)C(=O)N2C1C(=O)[O-].[K+] (configuration not stated) [HETACILLIN POTASSIUM]
62 | > 46 | C[N+](C)(C)CCCCCC[N+](C)(C)C [HEXAMETHONIUM]
63 | > 46 | Oc1ccc(C(O)CNCCCCCCNCC(O)c2ccc(O)c(O)c2)cc1O (configuration not stated) [HEXOPRENALINE SULFATE]
64 | > 46 | CCCCCCOC(=O)c1cccnc1 [HEXYL NICOTINATE]
65 | > 46 | CC(=O)N[C@@H]1C(O[C@H]2O[C@H](C(=O)O)C(O)[C@H](O)[C@H]2O)[C@H](O)[C@@H](CO)O[C@H]1O[C@@H]1C(C(=O)O)O[C@@H](O[C@H]2[C@H](O)[C@@H](CO)OC(O)[C@@H]2NC(C)=O)[C@H](O)[C@H]1O (some centres not stated) [HYALURONATE SODIUM]
66 | > 46 | CCCC(=O)O[C@@]1(CCC2[C@@H]3CCC/4=C/C(=O)CC[C@]4(C)C3C(O)C[C@@]12C)C(=O)CO (some centres not stated) [HYDROCORTISONE BUTYRATE]
67 | > 46 | CCCC(=O)O[C@]1(C(=O)COC(=O)CC)CC[C@@H]2[C@@H]3CCC4=CC(=O)CC[C@]4(C)[C@H]3[C@@H](O)C[C@@]21C [HYDROCORTISONE PROBUTATE]
